Read-outs that look alike come from different tables or passages of the source.
Target: T1, Chk1 (Homo sapiens, UniProt O14757)
T1 construct: purchased Upstate Biotechnology
T1 sequence (O14757 1-476): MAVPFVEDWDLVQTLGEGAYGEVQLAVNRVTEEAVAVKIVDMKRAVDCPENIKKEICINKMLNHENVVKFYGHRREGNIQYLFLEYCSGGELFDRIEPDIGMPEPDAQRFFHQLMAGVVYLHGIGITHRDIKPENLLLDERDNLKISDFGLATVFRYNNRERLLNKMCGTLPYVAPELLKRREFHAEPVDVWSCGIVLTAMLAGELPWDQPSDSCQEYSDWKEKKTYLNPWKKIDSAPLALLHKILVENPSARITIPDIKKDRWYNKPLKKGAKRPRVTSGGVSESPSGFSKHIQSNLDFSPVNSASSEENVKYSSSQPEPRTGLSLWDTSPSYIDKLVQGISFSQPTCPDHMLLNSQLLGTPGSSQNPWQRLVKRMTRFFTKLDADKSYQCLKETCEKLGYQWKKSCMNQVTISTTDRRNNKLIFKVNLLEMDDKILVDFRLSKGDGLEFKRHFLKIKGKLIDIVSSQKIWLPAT
Test: Chk1 kinase assay: incorporation of γ-33P ATP into immobilized myelin basic protein
Format: biochemical
Settings: read-out: Chk1 IC50
Method in brief: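 Read-out is scintillation counting of 33P incorporated into plate-bound myelin basic protein. Chk1 runs at 10 nM enzyme with 10 μM ATP, Chk2 at 20 nM with 30 μM ATP, each for 1 hour at room temperature. Duplicate points; IC50 taken as 50% activity reduction, Ki computed from IC50.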

[1] = Table 11, Chk1 only, class symbols A-D

Structure (SMILES)	IC50 [nM]	IC50 (Table 11, Chk1 only) [nM]	also measured
CNC(=O)c1nc(-c2cccc(NC(=O)Cc3ccc(Cl)c(Cl)c3)c2)cnc1N [Example 210, 3-amino-6-(3-{[(3,4-dichlorophenyl)acetyl]amino}phenyl)-N-methylpyrazine-2-carboxamide]	50 to 1000		
COc1ccccc1CNC(=O)c1cccc(-c2cnc(N)c(C(=O)N[C@H]3CCCNC3)n2)c1 [Example 855, 3-amino-6-{3-[({[2-(methyloxy)phenyl]methyl}amino)carbonyl]phenyl}-N-[(3S)-piperidin-3-yl]pyrazine-2-carboxamide]			IC50 [1]: < 50 nM
Cc1ccc(CNC(=O)c2cccc(-c3cnc(N)c(C(=O)N[C@H]4CCCNC4)n3)c2)c(C)c1 [Example 1038, 3-amino-6-[3-({[(2,4-dimethylphenyl)methyl]amino}carbonyl)phenyl]-N-[(3S)-piperidin-3-yl]pyrazine-2-carboxamide]			IC50 [1]: < 50 nM
Cc1cc(C(=O)NCc2cccc(-c3cnc(N)c(C(=O)N[C@H]4CCCNC4)n3)c2)no1 [Example 989, 3-amino-6-[3-({[(5-methylisoxazol-3-yl)carbonyl]amino}methyl)phenyl]-N-[(3S)-piperidin-3-yl]pyrazine-2-carboxamide]			IC50 [1]: < 50 nM
CNC(=O)c1nc(-c2cccc(C(=O)NCc3ccccc3C)c2)cnc1N [Example 285, 3-amino-N-methyl-6-[3-({[(2-methylphenyl)methyl]amino}carbonyl)phenyl]pyrazine-2-carboxamide]	50 to 1000		
CNC(=O)c1nc(-c2cccc(CNC(=O)c3ccc(-c4ccccc4)cc3)c2)cnc1N [Example 332, 3-amino-6-(3-{[(biphenyl-4-ylcarbonyl)amino]methyl}phenyl)-N-methylpyrazine-2-carboxamide]	< 50		
CCNC(=O)c1nc(-c2cccc(C(=O)NCc3ccccc3)c2)cnc1N [Example 272, 3-amino-N-ethyl-6-(3-{[(phenylmethyl)amino]carbonyl}phenyl)pyrazine-2-carboxamide]	1000 to 10000		
CNC(=O)c1nc(-c2cncc(C(=O)NCc3ccc4c(c3)OCCO4)c2)cnc1N [Example 411, 3-amino-6-(5-{[(2,3-dihydro-1,4-benzodioxin-6-ylmethyl)amino]carbonyl}pyridin-3-yl)-N-methylpyrazine-2-carboxamide]	50 to 1000		
CNC(=O)c1nc(-c2cccc(CNC(=O)c3ccc(I)cc3)c2)cnc1N [Example 350, 3-amino-6-[3-({[(4-iodophenyl)carbonyl]amino}methyl)phenyl]-N-methylpyrazine-2-carboxamide]	< 50		
Nc1ncc(-c2cccc(C(=O)NCc3ccc(Cl)cc3F)c2)nc1-c1nc([C@H]2CCCNC2)n[nH]1 [Example 820, 3-(5-amino-6-{3-[(3S)-piperidin-3-yl]-1H-1,2,4-triazol-5-yl}pyrazin-2-yl)-N-[(4-chloro-2-fluorophenyl)methyl]benzamide]			IC50 [1]: < 50 nM
CNC(=O)c1nc(-c2cccc(CN[C@@H]3c4ccccc4C[C@@H]3OC)c2)cnc1N [Example 468, 3-amino-N-methyl-6-[3-({[(1R,2S)-2-(methyloxy)-2,3-dihydro-1H-inden-1-yl]amino}methyl)phenyl]pyrazine-2-carboxamide]		50 to 1000	
CNC(=O)c1nc(-c2cccc(C(=O)NCc3ccc(Cl)cc3F)c2)cnc1N [Example 275, 3-amino-6-[3-({[(4-chloro-2-fluorophenyl)methyl]amino}carbonyl)phenyl]-N-methylpyrazine-2-carboxamide]	< 50		
CNC(=O)c1nc(-c2cccc(C(=O)O)c2)cnc1N [Example 92, 3-{5-amino-6-[(methylamino)carbonyl]pyrazin-2-yl}benzoic acid]	≥ 10000		
CNC(=O)c1nc(-c2cccc(C(=O)NCc3ccc(F)cc3C(F)(F)F)c2)cnc1N [Example 405, 3-amino-6-{3-[({[4-fluoro-2-(trifluoromethyl)phenyl]methyl}amino)carbonyl]phenyl}-N-methylpyrazine-2-carboxamide]	50 to 1000		
Nc1ncc(-c2cccc(C(=O)NCc3ccc(F)cc3)c2)nc1C(=O)N[C@H]1CCCNC1 [Example 842, 3-amino-6-[3-({[(4-fluorophenyl)methyl]amino}carbonyl)phenyl]-N-[(3S)-piperidin-3-yl]pyrazine-2-carboxamide]			IC50 [1]: < 50 nM
CCc1ccc(CNC(=O)c2cccc(-c3cnc(N)c(C(=O)NC)n3)c2)cc1 [Example 413, 3-amino-6-[3-({[(4-ethylphenyl)methyl]amino}carbonyl)phenyl]-N-methylpyrazine-2-carboxamide]	50 to 1000		
Nc1ncc(-c2cccc(CNS(=O)(=O)c3ccc4c(c3)OCCO4)c2)nc1C(=O)N[C@H]1CCCNC1 [Example 937, 3-amino-6-(3-{[(2,3-dihydro-1,4-benzodioxin-6-ylsulfonyl)amino]methyl}phenyl)-N-[(3S)-piperidin-3-yl]pyrazine-2-carboxamide]			IC50 [1]: < 50 nM
C=Cc1ccc(CNCc2cccc(-c3cnc(N)c(C(=O)NC)n3)c2)c(F)c1 [Example 458, 3-amino-6-[3-({[(4-ethenyl-2-fluorophenyl)methyl]amino}methyl)phenyl]-N-methylpyrazine-2-carboxamide]		50 to 1000	
CNC(=O)c1nc(-c2cccc(CNC(CN3CCOCC3)c3ccccc3)c2)cnc1N (centres unmarked) [Example 517, 3-amino-N-methyl-6-(3-{[(2-morpholin-4-yl-1-phenylethyl)amino]methyl}phenyl)pyrazine-2-carboxamide]		1000 to 10000	
CNC(=O)c1nc(-c2cccc(C(=O)N[C@H]3c4ccccc4C[C@H]3O)c2)cnc1N [Example 141, 3-amino-6-[3-({[(1S,2R)-2-hydroxy-2,3-dihydro-1H-inden-1-yl]amino}carbonyl)phenyl]-N-methylpyrazine-2-carboxamide]	1000 to 10000		

The next lines start with results.

IC50 [nM]	IC50 (Table 11, Chk1 only) [nM]	Structure (SMILES)	also measured
	50 to 1000	Nc1ncc(-c2cccc(CN[C@H]3CCc4ccccc43)c2)nc1C(=O)NCC1CC1 [Example 543, 3-amino-N-(cyclopropylmethyl)-6-(3-{[(1S)-2,3-dihydro-1H-inden-1-ylamino}methyl}phenyl)pyrazine-2-carboxamide]	
	1000 to 10000	CNC(=O)c1nc(-c2cc(C(=O)OC)cc(C(=O)OC)c2)cnc1N [Example 763, dimethyl 5-{5-amino-6-[(methylamino)carbonyl]pyrazin-2-yl}benzene-1,3-dicarboxylate]	
	1000 to 10000	N=C(NN1CCCCCC1)c1nc(-c2cccc(C(=O)NCc3ccccc3)c2)cnc1N [Example 623, 3-{5-amino-6-[(azepan-1-ylamino)(imino)methyl]pyrazin-2-yl}-N-(phenylmethyl)benzamide]	
	< 50	CNCCNC(=O)c1nc(-c2cccc(CN[C@H]3CCc4ccccc43)c2)cnc1N [Example 559, 3-amino-6-(3-{[(1S)-2,3-dihydro-1H-inden-1-ylamino]methyl}phenyl)-N-[2-(methylamino)ethyl]pyrazine-2-carboxamide]	
	1000 to 10000	CN(C)c1ccc(CN2CC[C@H](NC(=O)c3nc(-c4cccc(C(=O)NCc5ccccc5)c4)cnc3N)C2)cc1 [Example 690, 3-amino-N-((3S)-1-{[4-(dimethylamino)phenyl]methyl}pyrrolidin-3-yl)-6-(3-{[(phenylmethyl)amino]carbonyl}phenyl)pyrazine-2-carboxamide]	
	≥ 10000	C/C(=N\Nc1ccc(S(C)(=O)=O)cc1)c1nc(-c2cccc(C(=O)NCc3ccccc3)c2)cnc1N [Example 630, 3-(5-amino-6-{(1E)-N-[4-(methylsulfonyl)phenyl]ethanehydrazonoyl}pyrazin-2-yl)-N-(phenylmethyl)benzamide]	

Source: patent US7704995B2 (Exelixis, Inc., priority 2003, dated 2010)
